Converted amounts (≈) assume the structure as drawn. “And” between values parts separate entries of the source, which are not always exact repeats. Equal entries are not always repeated. Where two headings read alike, the source gives them in different places. Marks after values point to notes of the source that are not given here.
Experiments:
Hemolysis assay = assay type: cell-based; conditions: human
Description: Hemolytic activity against human erythrocytes taken from a healthy donor was measured as previously described. The hemolysis experiments were carried out in accordance with the guidelines of the United Arab Emirates University (UAEU) Research Ethics Review Board. All experimental protocols were approved by the Research Ethics Review Board of UAEU and informed consent was obtained from all donors.

Streptococcus suis = test: Antibacterial susceptibility testing (MIC), S. suis; assay type: cell-based; conditions: Streptococcus suis, read-out: MIC Streptococcus suis 3881/S10, strain 3881/S10
Summary of the method: (§1)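 MICs were determined by standard double (two-fold) dilution and read as the lowest compound concentration with no visible growth. MBC was the lowest concentration giving no colonies on plating, or no growth on regrowth in fresh MH medium. For S. pneumoniae the method was adapted to anaerobic conditions in Todd Hewitt yeast extract with 200 U/mL catalase, with growth monitored continuously.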

Streptococcus pneumoniae = test: Antibacterial susceptibility testing (MIC), S. pneumoniae; assay type: cell-based; conditions: strain 49619
Description: Bacterial strains used in this study for antibacterial susceptibility testing (Table S5) were propagated using standard microbiological procedures. Minimal inhibitory concentrations (MICs) were determined following a standard double-dilution method. MICs were recorded as the lowest concentration of the compound where no visible growth was observed. After plating the dilutions around the MIC or growing them in fresh MH media, minimal bactericidal concentration (MBC) was recorded as the lowest concentration of the compound at which no colonies were formed or no growth was observed, respectively. For S. pneumoniae MICs were determined by adapting the standard double-dilution method to anaerobic conditions and of this microorganism (use of Todd Hewitt Yeast extract with 200 U/mL of catalase and continuous monitoring of growth).

[1] = tested on: Stenotrophomonas maltophilia; test: Antibacterial susceptibility testing (MIC), S. maltophilia; assay type: cell-based
Summary of the method: as §1

S. aureus PhoR (PhoR^S) [2] = target: T1, S. aureus PhoR (PhoR^S) (Staphylococcus aureus, UniProt Q2FXN7); test: In vitro autophosphorylation kinase assay with γ-32P-ATP, PhoR^S; assay type: biochemical; conditions: for inhibition at 2000 µM: read-out: inhibition of PhoR^S autophosphorylation
T1 sequence (Q2FXN7 entry or part of it): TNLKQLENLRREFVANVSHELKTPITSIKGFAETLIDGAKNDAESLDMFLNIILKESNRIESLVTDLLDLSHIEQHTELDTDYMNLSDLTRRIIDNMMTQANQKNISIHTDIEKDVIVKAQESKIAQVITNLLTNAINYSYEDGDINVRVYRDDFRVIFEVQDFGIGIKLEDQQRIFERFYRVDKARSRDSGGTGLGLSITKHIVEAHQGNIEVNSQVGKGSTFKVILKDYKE
Summary of the method: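 ≈4 μM HK incubated with up to 20 mM fragment in 50 mM Tris HCl pH 8.5, 50 mM KCl, 5 mM MgCl2, 0.5 mM EDTA, 0.1 mM DTT; started with γ-32P-ATP (0.03–0.06 μM ATP final). Quenched with SDS sample buffer/EDTA, run on SDS-PAGE unheated, phosphoprotein quantified by phosphor-imaging.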

Acinetobacter baumannii = test: Antibacterial susceptibility testing (MIC), A. baumannii; assay type: cell-based
Summary of the method: as §1

S. aureus PhoR (PhoR^S) [3] = target: T1, S. aureus PhoR (PhoR^S); test: Aggregation analysis by native-PAGE, PhoR^S; conditions: 2 mM (S5 and S6 5 mM), 10% DMSO
Description: (§2) E. coli PhoR and EnvZ, and S. aureus PhoR ([…], final concentration) were prepared in kinase buffer. […] DMSO in the assays was maintained to a final concentration 10% (v/v). After 30 min of incubation at room temperature Native polyacrylamide gel electrophoresis (Native-PAGE) loading buffer was added and samples loaded. Coomassie blue staining was used for protein visualization.

[4] = tested on: Staphylococcus epidermidis; test: Antibacterial susceptibility testing (MIC/MBC), S. epidermidis; assay type: cell-based
Description: (§3) Minimal inhibitory concentrations (MICs) were determined following a standard double-dilution method. […] For S. pneumoniae MICs were determined by adapting the standard double-dilution method to anaerobic conditions and of this microorganism (use of Todd Hewitt Yeast extract with 200 U/mL of catalase and continuous monitoring of growth).

[5] = Solubility in kinase buffer; assay type: physicochemical; conditions: kinase buffer with 10% DMSO, pH 8.5, aqueous with cosolvent or surfactant or cyclodextrin, kinetic from dmso stock; kinase buffer in the presence of 10% DMSO; read-out: concentration above which not soluble / reduced solubility in kinase buffer
Pseudomonas aeruginosa = test: Antibacterial susceptibility testing (MIC), P. aeruginosa; assay type: cell-based; conditions: strain ATCC 27853; for MIC: Pseudomonas aeruginosa, ATCC27853
Summary of the method: as §1

Staphylococcus aureus = test: Antibacterial susceptibility testing (MIC/MBC), S. aureus; assay type: cell-based; conditions: for MIC S. aureus DSM 20231 / bacteriostatic or bactericidal for S. aureus DSM 20231: strain DSM 20231
Description: as §3

Klebsiella pneumoniae = test: Antibacterial susceptibility testing (MIC), K. pneumoniae; assay type: cell-based; conditions: for MIC: Klebsiella pneumoniae, ATCC700603, strain ATCC 700603; for MIC K. pneumoniae ATCC700603: strain ATCC 700603
Summary of the method: as §1

E. coli PhoR (PhoR^E) = target: T2, E. coli PhoR (PhoR^E) (Escherichia coli, UniProt P08400); test: Aggregation analysis by native-PAGE, PhoR^E; conditions: 2 mM (S5 and S6 5 mM), 10% DMSO
T2 construct: The catalytic portion (DHp and CA domain) of E. coli PhoR (PhoR^E); made in house; host or cells: E. coli RIL
T2 sequence (P08400 210-425): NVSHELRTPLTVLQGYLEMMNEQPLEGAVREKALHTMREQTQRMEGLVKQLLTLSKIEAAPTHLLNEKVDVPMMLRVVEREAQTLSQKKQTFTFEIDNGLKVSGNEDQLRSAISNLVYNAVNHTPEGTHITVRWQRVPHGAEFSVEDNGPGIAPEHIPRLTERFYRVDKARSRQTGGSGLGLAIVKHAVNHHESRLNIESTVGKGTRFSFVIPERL
Description: as §2

[6] = clinical isolate B5/5, read-out: MIC S. maltophilia B5/5
[7] = clinical isolate B6/2, read-out: MIC S. maltophilia B6/2
[8] = clinical isolate B32/1, read-out: MIC S. maltophilia B32/1
[9] = MDR clinical isolate NM8, read-out: MIC A. baumannii NM8
[10] = MDR clinical isolate NM35, read-out: MIC A. baumannii NM35
[11] = MDR clinical isolate NM75, read-out: MIC A. baumannii NM75
[12] = MDR clinical isolate NM109, read-out: MIC A. baumannii NM109
[13] = MDR clinical isolate NM124, read-out: MIC A. baumannii NM124
[14] = Staphylococcus epidermidis, DSM20044, strain DSM 20044, read-out: MIC S. epidermidis DSM 20044
[15] = Staphylococcus epidermidis, clinical isolate T7/3, read-out: MIC S. epidermidis T7/3
[16] = Staphylococcus epidermidis, clinical isolate T37/8, read-out: MIC S. epidermidis T37/8
[17] = Staphylococcus epidermidis, clinical isolate T6119, read-out: MIC S. epidermidis T6119
[18] = Staphylococcus epidermidis, strain RP62A (biofilm producer), read-out: MIC S. epidermidis RP62A
[19] = Staphylococcus epidermidis, strain RP62A/1 (non-biofilm producer), read-out: MIC S. epidermidis RP62A/1
[20] = Staphylococcus aureus, ATCC reference strain 25293, read-out: MIC S. aureus 25293
[21] = Staphylococcus aureus, DSM20231, strain DSM 20231, read-out: MIC S. aureus DSM 20231
[22] = Staphylococcus aureus, MRSA clinical isolate 127/08, read-out: MIC S. aureus 127/08
[23] = Staphylococcus aureus, MRSA clinical isolate 145/08, read-out: MIC S. aureus 145/08
[24] = Staphylococcus aureus, MRSA clinical isolate 274/08, read-out: MIC S. aureus 274/08
[25] = Staphylococcus aureus, MRSA, MRSA clinical isolate S908, read-out: MIC S. aureus S908
[26] = Staphylococcus aureus, MRSA, MRSA clinical isolate T4/6, read-out: MIC S. aureus T4/6
[27] = Staphylococcus aureus, MRSA, MRSA clinical isolate V4180, read-out: MIC S. aureus V4180
[28] = Staphylococcus aureus, MRSA, summary over susceptible MRSA clinical isolates, read-out: MICs for MRSA strains

CC(=O)Nc1cccc(-c2ccccc2Cl)c1 [S1.7, N-[3-(2-chlorophenyl)phenyl]acetamide]
HC50 (Hemolysis assay): > 500 µg/mL
MIC (Streptococcus suis): > 500 mg/L
MIC (Streptococcus pneumoniae): 128 mg/L (≈ 521 µM)
MIC [1, 6]: > 500 mg/L
MIC [1, 7]: > 500 mg/L
MIC [1, 8]: > 500 mg/L
IC50 (S. aureus PhoR (PhoR^S) [2]; IC50 PhoR^S, autophosphorylation, one time point (30 sec), 10% DMSO): 1000 µM and ~1000 µM
inhibition at 2000 µM (S. aureus PhoR (PhoR^S) [2]): > 75%
MIC (Acinetobacter baumannii; [9]): > 500 mg/L
MIC (Acinetobacter baumannii; [10]): > 500 mg/L
MIC (Acinetobacter baumannii; [11]): > 500 mg/L
MIC (Acinetobacter baumannii; [12]): > 500 mg/L
MIC (Acinetobacter baumannii; [13]): > 500 mg/L
HK aggregation, PhoR^S (S. aureus PhoR (PhoR^S) [3]): do not cause HK aggregation
MIC [4, 14]: > 500 mg/L
MIC [4, 15]: > 500 mg/L
MIC [4, 16]: > 500 mg/L
MIC [4, 17]: > 500 mg/L
MIC [4, 18]: > 500 mg/L
MIC [4, 19]: > 500 mg/L
solubility [5]: ≤ 1000 µM
MIC (Pseudomonas aeruginosa): > 500 mg/L
MIC P. aeruginosa ATCC 27853 (Pseudomonas aeruginosa): >500 mg/L
MIC (Staphylococcus aureus; [20]): 125 mg/L (≈ 509 µM)
MIC (Staphylococcus aureus; [21]): 250 mg/L (≈ 1020 µM)
MIC (Staphylococcus aureus; [22]): > 500 mg/L
MIC (Staphylococcus aureus; [23]): > 500 mg/L
MIC (Staphylococcus aureus; [24]): 250 mg/L (≈ 1020 µM)
MIC (Staphylococcus aureus; [25]): > 500 mg/L
MIC (Staphylococcus aureus; [26]): 250 mg/L (≈ 1020 µM)
MIC (Staphylococcus aureus; [27]): > 500 mg/L
MIC (Staphylococcus aureus; [28]): ≥ 250 mg/L
MIC S. aureus DSM 20231 (Staphylococcus aureus): 250^# μg/ml
bacteriostatic or bactericidal for S. aureus DSM 20231 (Staphylococcus aureus): bacteriostatic
MIC (Klebsiella pneumoniae): > 500 mg/L
MIC K. pneumoniae ATCC700603 (Klebsiella pneumoniae): >500 mg/L
HK aggregation, PhoR^E (E. coli PhoR (PhoR^E)): do not cause HK aggregation

CC(C)(C)c1ccc(O)c(CNc2ccccc2)c1 [S1.14, 4-tert-butyl-2-[(phenylamino)methyl]phenol]
HC50 (Hemolysis assay): > 500 µg/mL
MIC (Streptococcus suis): 125 mg/L (≈ 490 µM)
MIC (Streptococcus pneumoniae): > 500 mg/L
MIC [1, 6]: 500 mg/L (≈ 1960 µM)
MIC [1, 7]: 500 mg/L (≈ 1960 µM)
MIC [1, 8]: 500 mg/L (≈ 1960 µM)
MIC ([1]; summary over strains, read-out: MICs for S. maltophilia strains): 250 to 500 mg/L (≈ 979 to 1960 µM)
inhibition at 2000 µM (S. aureus PhoR (PhoR^S) [2]): > 75%
MIC (Acinetobacter baumannii; [9]): 500 mg/L (≈ 1960 µM)
MIC (Acinetobacter baumannii; [10]): 500 mg/L (≈ 1960 µM)
MIC (Acinetobacter baumannii; [11]): 500 mg/L (≈ 1960 µM)
MIC (Acinetobacter baumannii; [12]): 250 mg/L (≈ 979 µM)
MIC (Acinetobacter baumannii; [13]): 250 mg/L (≈ 979 µM)
MIC (Acinetobacter baumannii; summary over strains, read-out: MICs for A. baumannii strains): 250 to 500 mg/L (≈ 979 to 1960 µM)
HK aggregation, PhoR^S (S. aureus PhoR (PhoR^S) [3]): do not cause HK aggregation
MBC ([4]; Staphylococcus epidermidis, DSM20044, strain DSM 20044): 500 mg/L (≈ 1960 µM)
MIC [4, 14]: 500 mg/L (≈ 1960 µM)
MIC [4, 15]: 250 mg/L (≈ 979 µM)
MIC [4, 16]: 500 mg/L (≈ 1960 µM)
MIC [4, 17]: 500 mg/L (≈ 1960 µM)
MIC [4, 18]: > 500 mg/L
MIC [4, 19]: 500 mg/L (≈ 1960 µM)
MIC ([4]; Staphylococcus epidermidis, summary over strains, read-out: MICs for the S. epidermidis strains): 250 to 500 mg/L (≈ 979 to 1960 µM)
MIC S. epidermidis DSM 20044 ([4]; strain DSM 20044): 500^¶ μg/ml
bacteriostatic or bactericidal for S. epidermidis DSM 20044 ([4]; strain DSM 20044): bactericidal
MIC (Pseudomonas aeruginosa): > 500 mg/L
MIC P. aeruginosa ATCC 27853 (Pseudomonas aeruginosa): >500 mg/L
MIC (Staphylococcus aureus; [20]): 125 mg/L (≈ 490 µM)
MBC (Staphylococcus aureus; Staphylococcus aureus, DSM20231, strain DSM 20231, read-out: MBC S. aureus DSM 20231): 500 mg/L (≈ 1960 µM)
MIC (Staphylococcus aureus; [21]): 500 mg/L (≈ 1960 µM)
MIC (Staphylococcus aureus; [22]): 250 mg/L (≈ 979 µM)
MIC (Staphylococcus aureus; [23]): 250 mg/L (≈ 979 µM)
MIC (Staphylococcus aureus; [24]): 250 mg/L (≈ 979 µM)
MIC (Staphylococcus aureus; [25]): 250 mg/L (≈ 979 µM)
MIC (Staphylococcus aureus; [26]): 250 mg/L (≈ 979 µM)
MIC (Staphylococcus aureus; [27]): 250 mg/L (≈ 979 µM)
MIC (Staphylococcus aureus; [28]): 250 mg/L (≈ 979 µM)
MIC S. aureus DSM 20231 (Staphylococcus aureus): 500^¶ μg/ml
bacteriostatic or bactericidal for S. aureus DSM 20231 (Staphylococcus aureus): bactericidal
MIC (Klebsiella pneumoniae): > 500 mg/L
MIC K. pneumoniae ATCC700603 (Klebsiella pneumoniae): >500 mg/L
HK aggregation, PhoR^E (E. coli PhoR (PhoR^E)): do not cause HK aggregation

Reference: PMC4865847, “Putative histidine kinase inhibitors with antibacterial effect against multi-drug resistant clinical isolates identified by in vitro and in silico screens” (Scientific Reports, 2016)
